The source of these data is patent publication US7985586B2, “Oligodendrocyte precursor cell composition and methods of use” (Georgia Health Sciences University, priority 2008, dated 2011).

In data set [1] the test system is oligodendrocyte precursors (ODPCs) from EB-derived cells. The data set is described as follows: Generation of iODPCs from EB-derived cells treated with S18 and S1P or S1P analogs. The class given is cell-based, mouse. The note with it: for effect on the number of ODPCs / ODPCs [% of total cells]: S1P 1 μM, VPC24191 or SEW2871 300 nM, FTY720 300 nM; for ODPCs [% of total cells]: in combination with S18, n=4 independent experiments; for increase of the number of oligodendrocyte precursors (ODPCs): in vitro, combination with S18. The procedure: Pre-implantation blastocyst-derived ES cells (ES-J1, Rosa26, E14) were grown on γ-irradiated feeder fibroblasts, and neural differentiation was induced by serum deprivation of EBs as previously described. Attached EBs were dissociated and EB-derived cells (EBCs) plated on polyornithin/laminin-coated dishes. At this stage, cells were grown in DMEM/F12 supplemented with N2 and FGF-2 (EB medium). EBCs acquire all characteristics of genuine NPCs, including expression of nestin. Sox1, and FGFR1. In the presence of FGF-2, NPCs can be dissociated and propagated at >80% homogeneity.
(§1) This protocol was modified using S18 or S1P (or its analogs) for incubation of differentiating ES cells at the EB stage prior to and after dissociation. After incubation with 50-100 μM S18 and/or 0.1-2 μM S1P or S1P analogs for 48 h, EBCs were dissociated and then immediately re-plated, and further incubated with NP medium supplemented with 50-100 μM S18 and 0.1-2 μM S1P or S1P analogs. NPCs were either transplanted into brain or spinal cord or in vitro differentiated in differentiation medium.
For incubation with S18 and S1P (or S1P) analogs add: 50-100 μM S18; 0.1-2 μM S1P or S1P analogs (FTY720, SEW2871, VPC24191 or related compounds) to EB and NP medium. The incubation time can vary from 24-72 h.
(§2) In vitro, treatment with a combination of S18 and S1P or S1P analogs (FTY720, VPC24191, SEW2871) increases the number of oligodendrocyte precursors (ODPCs) by about 20-fold (Table 1). […] This observation was unexpected and novel, because it has not been shown before that combined treatment with S18 and S1P analogs can enrich for ODPCs.

The test system of data set [2] is EB-derived cells (EBCs). Put plainly: S18-induced apoptosis / elimination of EB-derived cell sub-populations and protection by S1P analogs. It is filed as cell-based, mouse. The note with it: for protection of S18-sensitive NPCs (NPC2) from apoptosis: added to medium with S18. The protocol:
FIG. 4 illustrates making sphingolipid-enhanced neural stem cells (SENSe). FIG. 4A illustrates that mouse ES cells were differentiated to the attached EB stage and immunocytochemistry performed using antibodies against Oct-4 and S1P1. NPC2 cells show Oct-4(−) and S1P1(+). […] Expression of S1P1 protects them from S18-induced apoptosis if S1P or its analogs are added to the medium. FIG. 4B provides that there are three sub-populations of EB-derived cells (EBCs): 1) Residual pluripotent (Oct-4(+)/PAR-4(+)/S1P1(−) cells. […] They are not protected by S1P1; 2) NPC1 cells are Oct-4(−)/PAR-4(−)/S1P1(+) and represent nestin-expressing neural progenitors. […] FIG. 4C illustrates that NPC2 cells are stained for A2B5 epitope, a marker for oligodendrocyte precursor cells.
as §1, §2

Data set [3] concerns EB-derived cells (EBCs). The note with it: stage of forming NPCs; ref [5]; cited from earlier work.
The next data set has as its system primitive ectoderm cells. The note with it: suspension EBs; ref [3]; cited from earlier work.
For data set [4] the following is noted: cited from earlier work.

Each structure is given as a SMILES string. “Also recorded” adds a separate entry of the source.

On to `FC(F)(F)c1cccc(-c2noc(-c3cc(-c4ccccc4)c(C(F)(F)F)s3)n2)c1` [SEW2871], for which, in data set [1], the “effect on the number of ODPCs” value was “elevate the number of ODPCs” and the “increase of the number of oligodendrocyte precursors (ODPCs)” value (from here on “increase”) was “about 20 fold”. Moreover, in data set [1] (VPC23019 2 μM), the “ODPCs [% of total cells]” value is on record as 18 +/− 3%.

As to `CCCCCCCCc1ccc(NC[C@H](N)COP(=O)(O)O)cc1` [VPC24191], in data set [1], the “effect on the number of ODPCs” value is “elevate the number of ODPCs” and the “increase” value was “about 20 fold”. In addition, the “ODPCs [% of total cells]” value in data set [1] (VPC23019 2 μM) is listed as 28 +/− 5%.

As for `CCCCCCCCCCCCC/C=C/[C@@H](O)[C@@H](N)COP(=O)(O)O` [S1P, sphingosine-1-phosphate], the “protection of S18-sensitive NPCs (NPC2) from apoptosis” value in the data set on EB-derived cells (EBCs) [2] is listed as “rescue S18-sensitive NPCs from apoptosis; also recorded: can be protected”. Moreover, in data set [1], the “effect on the number of ODPCs” value was “elevate the number of ODPCs” and the “increase” value is “about 20 fold”. In addition, the “ODPCs [% of total cells]” value in data set [1] (VPC23019 2 μM) is given as 12 +/− 3%.

Turning to `CCCCCCCC/C=C\CCCCCCCC(=O)NC(CO)CO` [S18, N-(2-hydroxy-1-(hydroxymethyl)ethyl)-oleoylamide], the “S18-induced apoptosis in NPC1 (Oct-4(−)/PAR-4(−)/S1P1(+)) cells” value in the data set with EB-derived cells (EBCs) [2] is listed as “do not undergo S18-induced apoptosis”. Further, the “elimination of teratoma-forming residual pluripotent (Oct-4(+)/PAR-4(+)/S1P1(−)) cells” value in the data set on EB-derived cells (EBCs) [2] (ES cell graft / EB-derived cells) is on record as “specifically eliminate teratoma-forming cells; also recorded: are eliminated by S18”. Besides, in the data set on EB-derived cells (EBCs) [2] (without S1P or FTY720), the “elimination of NPC2 (Oct-4(−)/PAR-4(+)/S1P1(+)) cells” value is “is also eliminated by S18; also recorded: are eliminated by S18”. For the same compound, the “elimination of Oct-4(+) cells from differentiating ES cells” value with EB-derived cells (EBCs) [3] was “eliminates Oct-4(+) cells”. In the data set with primitive ectoderm cells, the “primitive ectoderm formation after ceramide depletion” value is given as “restores primitive ectoderm formation”.

For the compound `CCCCCCCCc1cccc(NC(=O)[C@H](N)COP(=O)(O)O)c1` [VPC23019], the “effect of S1P1 antagonist on the S1P and FTY720 effect” value in data set [1] (VPC23019 2 μM) was “inhibits the effect of S1P and FTY720”.

For `CCCCCCCCc1ccc(CCC(N)(CO)CO)cc1` [FTY720, 2-amino-2-[2-(4-octylphenyl)ethyl]propane-1,3-diol], the “protection of S18-sensitive NPCs (NPC2) from apoptosis” value in the data set with EB-derived cells (EBCs) [2] is listed as “rescue S18-sensitive NPCs from apoptosis; also recorded: can be protected”. Besides, in data set [1], the “effect on the number of ODPCs” value is given as “elevate the number of ODPCs” and the “increase” value is “about 20 fold”.

Regarding `CCCCCCCCCCCCC/C=C/[C@@H](O)[C@H](CO)NC(C)=O` [C2 ceramide, N-acetyl sphingosine], the “water solubility compared with physiological ceramide species (e.g. C16 ceramide)” value in data set [4] is on record as “several-fold higher”.
